Assay results: ChEMBL document CHEMBL3885861, “Open TG-GATES”

Organism: Rattus norvegicus
Test: Open TG-GATES - Regimen: Daily Repeat
Type: toxicity, organism-based, Sprague-Dawley
Design: regimen Daily Repeat, gender Male, age 6 weeks
Details: in vivo, po, route gavage; for APTT / Bas / Eos / Fbg / Hb / Ht / Lym / MCH / MCHC / MCV / Mono / Neu / PT / Plat / RBC / Ret / WBC: tissue Blood; for KIDNEY_L / KIDNEY_R / KIDNEY_TOTAL: tissue Kidney; for LIVER: tissue Liver; for A/G / ALP / ALT / AST / BUN / CRE / Ca / Cl / DBIL / GLC / IP / K / LDH / Na / PL / RALB / TBIL / TC / TG / TP / gamma-GTP: tissue Plasma
[1] = 0 mg/kg, 72 h, dose level Control, time 3 day
[2] = 0 mg/kg, […], dose level Control, time 7 day
[3] = 0 mg/kg, […], dose level Control, time 14 day
[4] = 0 mg/kg, […], dose level Control, time 28 day
[5] = 100 mg/kg, 72 h, dose level Low, time 3 day
[6] = 100 mg/kg, […], dose level Low, time 7 day
[7] = 100 mg/kg, […], dose level Low, time 14 day
[8] = 100 mg/kg, […], dose level Low, time 28 day

## CCOc1ccc(NC(=O)CC(C)O)cc1 (centres undefined) [BUCETIN]
[1]
  TERMINAL_BW: 249.6 g
  APTT: 17.8 s
  Bas: 0%
  Eos: 1%
  Fbg: 305.2 mg/dL
  Hb: 13.4 g/dL
  Ht: 40.2%
  Lym: 73.4%
  MCH: 21.3 pg
  MCHC: 33.3%
  MCV: 64.1 fL
  Mono: 3%
  Neu: 22%
  PT: 14 s
  Plat: 120.3 x10_4/uL
  RBC: 627 x10_4/ul
  Ret: 7.2%
  WBC: 91.6 x10_2/uL
  KIDNEY_L: 1.1 g
  KIDNEY_R: 1.1 g
  KIDNEY_TOTAL: 2.1 g
  LIVER: 11.9 g
  A/G: 0.8
  ALP: 1726.4 IU/L
  ALT: 33.8 IU/L
  AST: 66.8 IU/L
  BUN: 14.8 mg/dL
  CRE: 0.2 mg/dL
  Ca: 11 mg/dL
  Cl: 105.4 meq/L
  DBIL: 0.02 mg/dL
  GLC: 179 mg/dL
  IP: 7.5 mg/dL
  K: 4.1 meq/L
  LDH: 67.2 IU/L
  Na: 144 meq/L
  PL: 165.2 mg/dL
  RALB: 2.7 g/dL
  TBIL: 0.048 mg/dL
  TC: 82.4 mg/dL
  TG: 104.6 mg/dL
  TP: 5.9 g/dL
  gamma-GTP: 1.2 IU/L
[2]
  TERMINAL_BW: 287 g
  APTT: 16.5 s
  Bas: 0%
  Eos: 1.2%
  Fbg: 262.4 mg/dL
  Hb: 13.5 g/dL
  Ht: 40%
  Lym: 81.2%
  MCH: 20.7 pg
  MCHC: 33.7%
  MCV: 61.5 fL
  Mono: 2.6%
  Neu: 14.4%
  PT: 13.9 s
  Plat: 112.2 x10_4/uL
  RBC: 651 x10_4/ul
  Ret: 6.3%
  WBC: 93.2 x10_2/uL
  KIDNEY_L: 1.2 g
  KIDNEY_R: 1.1 g
  KIDNEY_TOTAL: 2.3 g
  LIVER: 13.2 g
  A/G: 0.8
  ALP: 1795.8 IU/L
  ALT: 32.2 IU/L
  AST: 65.6 IU/L
  BUN: 15.4 mg/dL
  CRE: 0.2 mg/dL
  Ca: 11 mg/dL
  Cl: 105.2 meq/L
  DBIL: 0.018 mg/dL
  GLC: 185 mg/dL
  IP: 7.3 mg/dL
  K: 4 meq/L
  LDH: 95.2 IU/L
  Na: 142.6 meq/L
  PL: 166.6 mg/dL
  RALB: 2.6 g/dL
  TBIL: 0.038 mg/dL
  TC: 77.8 mg/dL
  TG: 144 mg/dL
  TP: 5.8 g/dL
  gamma-GTP: 1 IU/L
[3]
  TERMINAL_BW: 375 g
  APTT: 17.7 s
  Bas: 0.2%
  Eos: 1%
  Fbg: 321.4 mg/dL
  Hb: 14 g/dL
  Ht: 41.7%
  Lym: 75.8%
  MCH: 20.2 pg
  MCHC: 33.6%
  MCV: 60.2 fL
  Mono: 2.4%
  Neu: 20.4%
  PT: 13.8 s
  Plat: 127.4 x10_4/uL
  RBC: 694 x10_4/ul
  Ret: 4.6%
  WBC: 121.6 x10_2/uL
  KIDNEY_L: 1.5 g
  KIDNEY_R: 1.3 g
  KIDNEY_TOTAL: 2.8 g
  LIVER: 17.3 g
  A/G: 0.8
  ALP: 1354.4 IU/L
  ALT: 33 IU/L
  AST: 60.8 IU/L
  BUN: 16 mg/dL
  CRE: 0.2 mg/dL
  Ca: 11.1 mg/dL
  Cl: 104.4 meq/L
  DBIL: 0.02 mg/dL
  GLC: 188.8 mg/dL
  IP: 7.4 mg/dL
  K: 3.9 meq/L
  LDH: 97.4 IU/L
  Na: 144.8 meq/L
  PL: 170.2 mg/dL
  RALB: 2.8 g/dL
  TBIL: 0.05 mg/dL
  TC: 81 mg/dL
  TG: 160.8 mg/dL
  TP: 6.3 g/dL
  gamma-GTP: 1.2 IU/L
[4]
  TERMINAL_BW: 420.9 g
  APTT: 18.6 s
  Bas: 0.2%
  Eos: 1.2%
  Fbg: 296.4 mg/dL
  Hb: 15.3 g/dL
  Ht: 44%
  Lym: 79.4%
  MCH: 19.7 pg
  MCHC: 34.9%
  MCV: 56.5 fL
  Mono: 2.2%
  Neu: 16.6%
  PT: 13.9 s
  Plat: 99.2 x10_4/uL
  RBC: 778.4 x10_4/ul
  Ret: 2.7%
  WBC: 100.2 x10_2/uL
  KIDNEY_L: 1.4 g
  KIDNEY_R: 1.4 g
  KIDNEY_TOTAL: 2.9 g
  LIVER: 16.3 g
  A/G: 0.8
  ALP: 1201 IU/L
  ALT: 30.8 IU/L
  AST: 62.4 IU/L
  BUN: 15.2 mg/dL
  CRE: 0.3 mg/dL
  Ca: 11 mg/dL
  Cl: 105.8 meq/L
  DBIL: 0.022 mg/dL
  GLC: 188.6 mg/dL
  IP: 5.8 mg/dL
  K: 3.9 meq/L
  LDH: 69.6 IU/L
  Na: 145.4 meq/L
  PL: 146.2 mg/dL
  RALB: 2.8 g/dL
  TBIL: 0.058 mg/dL
  TC: 65.4 mg/dL
  TG: 155.6 mg/dL
  TP: 6.3 g/dL
  gamma-GTP: 2 IU/L
[5]
  TERMINAL_BW: 249.8 g
  APTT: 17.5 s
  Bas: 0%
  Eos: 0.8%
  Fbg: 309.6 mg/dL
  Hb: 13.8 g/dL
  Ht: 41.5%
  Lym: 76.4%
  MCH: 21.2 pg
  MCHC: 33.2%
  MCV: 63.9 fL
  Mono: 3.4%
  Neu: 18.8%
  PT: 14.1 s
  Plat: 126.2 x10_4/uL
  RBC: 650.6 x10_4/ul
  Ret: 6.9%
  WBC: 79.2 x10_2/uL
  KIDNEY_L: 1 g
  KIDNEY_R: 1.1 g
  KIDNEY_TOTAL: 2.1 g
  LIVER: 12.1 g
  A/G: 0.9
  ALP: 1621.2 IU/L
  ALT: 35.2 IU/L
  AST: 62.4 IU/L
  BUN: 14.4 mg/dL
  CRE: 0.2 mg/dL
  Ca: 11 mg/dL
  Cl: 105.6 meq/L
  DBIL: 0.02 mg/dL
  GLC: 188.4 mg/dL
  IP: 7.6 mg/dL
  K: 4.2 meq/L
  LDH: 76.6 IU/L
  Na: 143 meq/L
  PL: 163.8 mg/dL
  RALB: 2.7 g/dL
  TBIL: 0.044 mg/dL
  TC: 82 mg/dL
  TG: 116.4 mg/dL
  TP: 5.9 g/dL
  gamma-GTP: 1 IU/L
[6]
  TERMINAL_BW: 303 g
  APTT: 17.7 s
  Bas: 0%
  Eos: 0.8%
  Fbg: 276.6 mg/dL
  Hb: 13.4 g/dL
  Ht: 40.1%
  Lym: 77.8%
  MCH: 20.5 pg
  MCHC: 33.5%
  MCV: 61.2 fL
  Mono: 2.8%
  Neu: 17.6%
  PT: 14 s
  Plat: 121.8 x10_4/uL
  RBC: 655.4 x10_4/ul
  Ret: 5.8%
  WBC: 116.6 x10_2/uL
  KIDNEY_L: 1.3 g
  KIDNEY_R: 1.3 g
  KIDNEY_TOTAL: 2.5 g
  LIVER: 14.8 g
  A/G: 0.8
  ALP: 1437.2 IU/L
  ALT: 42.8 IU/L
  AST: 69.6 IU/L
  BUN: 15.8 mg/dL
  CRE: 0.2 mg/dL
  Ca: 11 mg/dL
  Cl: 105 meq/L
  DBIL: 0.022 mg/dL
  GLC: 188.4 mg/dL
  IP: 7.3 mg/dL
  K: 4.2 meq/L
  LDH: 103.8 IU/L
  Na: 144.4 meq/L
  PL: 172.8 mg/dL
  RALB: 2.7 g/dL
  TBIL: 0.04 mg/dL
  TC: 80.6 mg/dL
  TG: 143 mg/dL
  TP: 6 g/dL
  gamma-GTP: 1.2 IU/L
[7]
  TERMINAL_BW: 338.2 g
  APTT: 19.2 s
  Bas: 0%
  Eos: 0.8%
  Fbg: 287.8 mg/dL
  Hb: 14.6 g/dL
  Ht: 43.2%
  Lym: 74.6%
  MCH: 20.1 pg
  MCHC: 33.9%
  MCV: 59.3 fL
  Mono: 2.4%
  Neu: 21.4%
  PT: 13.9 s
  Plat: 116.5 x10_4/uL
  RBC: 729.2 x10_4/ul
  Ret: 4.1%
  WBC: 86.9 x10_2/uL
  KIDNEY_L: 1.3 g
  KIDNEY_R: 1.2 g
  KIDNEY_TOTAL: 2.5 g
  LIVER: 14.9 g
  A/G: 0.8
  ALP: 1590.2 IU/L
  ALT: 34.4 IU/L
  AST: 62.6 IU/L
  BUN: 14.6 mg/dL
  CRE: 0.2 mg/dL
  Ca: 11.1 mg/dL
  Cl: 105.8 meq/L
  DBIL: 0.02 mg/dL
  GLC: 191 mg/dL
  IP: 7.4 mg/dL
  K: 3.8 meq/L
  LDH: 77.4 IU/L
  Na: 145.2 meq/L
  PL: 159.2 mg/dL
  RALB: 2.8 g/dL
  TBIL: 0.06 mg/dL
  TC: 71.2 mg/dL
  TG: 145 mg/dL
  TP: 6.1 g/dL
  gamma-GTP: 1.2 IU/L
[8]
  TERMINAL_BW: 405.9 g
  APTT: 17.9 s
  Bas: 0.2%
  Eos: 1%
  Fbg: 280.4 mg/dL
  Hb: 15.6 g/dL
  Ht: 44.9%
  Lym: 81%
  MCH: 19.5 pg
  MCHC: 34.9%
  MCV: 55.9 fL
  Mono: 2%
  Neu: 15%
  PT: 14.1 s
  Plat: 114.4 x10_4/uL
  RBC: 802.8 x10_4/ul
  Ret: 2.5%
  WBC: 132 x10_2/uL
  KIDNEY_L: 1.4 g
  KIDNEY_R: 1.4 g
  KIDNEY_TOTAL: 2.9 g
  LIVER: 16.3 g
  A/G: 0.8
  ALP: 1115.2 IU/L
  ALT: 32.6 IU/L
  AST: 64.6 IU/L
  BUN: 15.8 mg/dL
  CRE: 0.3 mg/dL
  Ca: 11 mg/dL
  Cl: 104.8 meq/L
  DBIL: 0.022 mg/dL
  GLC: 188.6 mg/dL
  IP: 5.9 mg/dL
  K: 3.9 meq/L
  LDH: 82.8 IU/L
  Na: 145.2 meq/L
  PL: 155 mg/dL
  RALB: 2.9 g/dL
  TBIL: 0.06 mg/dL
  TC: 70.4 mg/dL
  TG: 145 mg/dL
  TP: 6.4 g/dL
  gamma-GTP: 1.4 IU/L
